One experiment deals with T1, α1b-AR (Homo sapiens, UniProt P35368).
T1 sequence (P35368 1-520): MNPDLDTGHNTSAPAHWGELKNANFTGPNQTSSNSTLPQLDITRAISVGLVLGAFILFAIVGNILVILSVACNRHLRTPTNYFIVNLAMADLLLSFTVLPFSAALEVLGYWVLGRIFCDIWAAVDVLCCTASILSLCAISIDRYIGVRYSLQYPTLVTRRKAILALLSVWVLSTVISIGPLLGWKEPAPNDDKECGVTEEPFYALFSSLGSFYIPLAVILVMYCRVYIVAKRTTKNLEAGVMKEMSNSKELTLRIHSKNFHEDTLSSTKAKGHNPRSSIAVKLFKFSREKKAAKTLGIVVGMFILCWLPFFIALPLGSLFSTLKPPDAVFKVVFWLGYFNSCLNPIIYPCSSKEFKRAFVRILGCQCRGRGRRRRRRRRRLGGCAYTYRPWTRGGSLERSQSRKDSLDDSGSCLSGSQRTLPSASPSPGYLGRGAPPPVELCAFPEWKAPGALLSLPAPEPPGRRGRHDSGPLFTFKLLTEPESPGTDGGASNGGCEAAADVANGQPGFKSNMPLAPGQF
The experiment in a line: α1-Adrenergic receptor radio-ligand (125I-HEAT) binding assay, α1b subtype. The settings on record: Receptor Binding, Ki α1b-AR, COS-7 cell membranes, 125I-HEAT.

The next experiment concerns the target T2, α1a-AR (Homo sapiens, UniProt P35348).
T2 construct: expressed in transfected cells; host or cells: COS-7
T2 sequence (P35348 1-466): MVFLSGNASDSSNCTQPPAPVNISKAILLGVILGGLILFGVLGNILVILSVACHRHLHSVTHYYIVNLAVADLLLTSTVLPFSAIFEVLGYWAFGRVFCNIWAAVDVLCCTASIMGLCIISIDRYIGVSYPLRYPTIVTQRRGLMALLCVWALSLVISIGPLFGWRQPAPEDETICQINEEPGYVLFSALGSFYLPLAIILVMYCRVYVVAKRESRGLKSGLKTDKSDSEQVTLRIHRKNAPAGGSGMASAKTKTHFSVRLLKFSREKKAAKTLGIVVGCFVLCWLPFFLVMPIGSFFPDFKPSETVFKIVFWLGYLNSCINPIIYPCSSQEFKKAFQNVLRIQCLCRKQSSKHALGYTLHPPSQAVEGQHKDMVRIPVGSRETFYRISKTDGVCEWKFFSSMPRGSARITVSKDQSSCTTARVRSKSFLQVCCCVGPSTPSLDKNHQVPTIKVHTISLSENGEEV
The experiment in a line: α1-Adrenergic receptor radio-ligand (125I-HEAT) binding assay, α1a subtype. To be noted: COS-7 cell membranes, 125I-HEAT. The protocol: α1-Adrenergic Receptor Binding Assay: Preparation of COS Cell Membranes
Membranes were prepared from COS-7 cells that had been transfected with one of the three α1-AR subtypes by the following method. COS cells from ten 100 mm tissue culture plates were scraped into 5 mL TE (50 mM Tris-HCl, 5 mM EDTA, pH 7.4). The cell suspension was disrupted with a Brinkman Polytron, setting 8, for 10 sec. The disrupted cells were centrifuged at 1000×g for 10 min at 4° C. Supernatants were centrifuged at 34,500×g for 20 min at 4° C. The membrane pellets were suspended in 2 mL TNE (50 mM Tris-HCl, 5 mM EDTA, 150 mM NaCl, pH7.4). An aliquot of the membrane suspension was stored at −70° C. until use. The protein concentration was determined using the BioRad DC protein assay kit following membrane solubilization with Triton X-100.
Radio-Ligand Binding Assay
Triplicate determinations of radio-ligand binding in the presence of increasing: concentrations of testing compound were made. The reagents were added to 96-well polypropylene plate wells using the Biomek 1000 robot (Beckman Instruments). Each assay well contained 140 μl TNE, 25 μL ^125I-HEAT (specific activity 2200 Ci/mmol, Dupont-NEN, 50 pM final), 10 μL testing compound dissolved in DMSO (1 pM to 10 μM in half-log increments, final), and 25 μL appropriate α1-AR membrane subtype suspension in TNE (0.5 ng/μL for the α1a and α1b subtypes and 13 ng/μL for the α1d subtype). The plate was incubated at rt for 1 hr. The contents of the wells were filtered through a GF/C membrane Unifilter plate (Packard Instruments) using the Packard Filtermate cell harvester. The filter plates were dried in a vacuum oven for 30 min at 40° C. 25 μL Microscint 20 liquid scintillation fluid (Packard Instuments) was added to each well. The radioactive content was analyzed in the TopCount microplate scintillation counter (Packard Instruments).

A further experiment addresses T3, α1d-AR (Homo sapiens, UniProt P25100).
T3 construct: expressed in transfected cells; host or cells: COS-7
T3 sequence (P25100 1-572): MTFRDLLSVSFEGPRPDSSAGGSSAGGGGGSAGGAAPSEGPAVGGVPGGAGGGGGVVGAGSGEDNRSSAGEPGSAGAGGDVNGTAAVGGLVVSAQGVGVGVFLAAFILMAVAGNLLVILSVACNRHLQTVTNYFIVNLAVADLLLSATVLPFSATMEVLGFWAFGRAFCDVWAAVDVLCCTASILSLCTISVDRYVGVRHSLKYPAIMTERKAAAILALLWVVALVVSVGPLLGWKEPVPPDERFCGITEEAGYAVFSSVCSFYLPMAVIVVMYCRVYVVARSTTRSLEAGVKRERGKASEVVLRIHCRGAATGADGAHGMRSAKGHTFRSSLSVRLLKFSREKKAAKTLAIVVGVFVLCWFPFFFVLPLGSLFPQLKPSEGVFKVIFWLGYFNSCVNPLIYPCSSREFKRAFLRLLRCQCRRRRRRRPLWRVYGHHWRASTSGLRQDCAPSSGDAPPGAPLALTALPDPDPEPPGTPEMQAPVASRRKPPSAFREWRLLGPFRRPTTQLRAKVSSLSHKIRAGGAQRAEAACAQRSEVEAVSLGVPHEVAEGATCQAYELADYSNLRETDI
In words: α1-Adrenergic receptor radio-ligand (125I-HEAT) binding assay, α1d subtype. The settings on record: COS-7 cell membranes, 125I-HEAT; read-out: Receptor Binding, Ki α1d-AR.

Structures are written as SMILES.

As to `CC(C)Oc1ccccc1N1CCN([C@H]2CC[C@H](NS(=O)(=O)c3ccccc3C(F)(F)F)CC2)CC1` [Cpd 41, N-trans-{4-[4-(2-Isopropoxy-phenyl)-piperazin-1-yl]-cyclohexyl}-2-trifluoromethyl-benzenesulfonamide], the values for the Ki on α1b-AR, on α1a-AR and at α1d-AR were 0.844 µM, 0.0181 µM and 0.246 µM, respectively.
`CC(C)Oc1ccccc1N1CCN([C@H]2CC[C@H](NS(=O)(=O)Cc3ccccc3)CC2)CC1` [Cpd 62, N-trans-{4-[4-(2-Isopropoxy-phenyl)-piperazin-1-yl]-cyclohexyl}-C-phenyl-methanesulfonamide]: the Ki on α1b-AR is 0.2 µM; at α1a-AR it was 0.0039 µM; on α1d-AR, 0.012 µM.
For `COc1ccc(F)cc1S(=O)(=O)N[C@H]1CC[C@@H](N2CCN(c3ccccc3OC(C)C)CC2)CC1` [Cpd 15, 5-Fluoro-N-cis-{4-[4-(2-isopropoxy-phenyl)-piperazin-1-yl]-cyclohexyl}-2-methoxy-benzenesulfonamide] the same measures were 0.162 µM, 0.006 µM and 0.005 µM.
The matching figures for `COc1ccc(S(=O)(=O)N[C@H]2CC[C@@H](N3CCN(c4cc(F)ccc4OCC(F)(F)F)CC3)CC2)cc1OC` [Cpd 83, N-cis-(4-{4-[5-Fluoro-2-(2,2,2-trifluoro-ethoxy)-phenyl]-piperazin-1-yl}-cyclohexyl)-3,4-dimethoxy-benzenesulfonamide]: 0.075 µM, 0.0017 µM and 0.00058 µM.
The matching figures for `COc1ccc(S(=O)(=O)N[C@H]2CC[C@@H](N3CCN(c4ccc(F)cc4OC(C)C)CC3)CC2)cc1OC` [Cpd 71, N-cis-{4-[4-(4-Fluoro-2-isopropoxy-phenyl)-piperazin-1-yl]-cyclohexyl}-3,4-dimethoxy-benzenesulfonamide]: 0.711 µM, 0.0149 µM and 0.0059 µM.
Turning to `COc1ccc(S(=O)(=O)N[C@H]2CC[C@H](N3CCN(c4ccc(F)cc4OCC(F)(F)F)CC3)CC2)cc1OC` [Cpd 80, N-trans-(4-{4-[4-Fluoro-2-(2,2,2-trifluoro-ethoxy)-phenyl]-piperazin-1-yl}-cyclohexyl)-3,4-dimethoxy-benzenesulfonamide], the inhibition constant Ki at α1b-AR amounted to 0.087 µM; on α1a-AR it was 0.021 µM; on α1d-AR, 0.038 µM.
For `CC(C)Oc1ccccc1N1CCN([C@H]2CC[C@H](NS(=O)(=O)c3ccccc3)CC2)CC1` [Cpd 53] the same measures were 0.487 µM, 0.0027 µM and 0.055 µM.
With `COc1ccc(S(=O)(=O)N[C@H]2CC[C@H](N3CCN(c4ccc(F)cc4OC(C)C)CC3)CC2)cc1OC` [Cpd 72, N-trans-{4-[4-(4-Fluoro-2-isopropoxy-phenyl)-piperazin-1-yl]-cyclohexyl}-3,4-dimethoxy-benzenesulfonamide], the Ki at α1b-AR turned out to be 0.146 µM; at α1a-AR, 0.009 µM; on α1d-AR it was 0.0122 µM.
On to `CCN([C@H]1CC[C@H](N2CCN(c3ccccc3OC(C)C)CC2)CC1)S(=O)(=O)c1ccc(OC)c(OC)c1` [Cpd 68, N-Ethyl-N-trans-{4-[4-(2-isopropoxy-phenyl)-piperazin-1-yl]-cyclohexyl}-3,4-dimethoxy-benzenesulfonamide], for which the inhibition constant (Ki) at α1b-AR was 0.109 µM; on α1a-AR, 0.023 µM; on α1d-AR it was 0.0067 µM.
The matching figures for `COc1ccc(C)cc1S(=O)(=O)N[C@H]1CC[C@@H](N2CCN(c3ccccc3OC(C)C)CC2)CC1` [Cpd 4, N-cis-{4-[4-(2-Isopropoxy-phenyl)-piperazin-1-yl]-cyclohexyl}-2-methoxy-5-methyl-benzenesulfonamide]: 0.141 µM, 0.0046 µM and 0.0038 µM.
The matching figures for `Cc1ccc(S(=O)(=O)N[C@H]2CC[C@@H](N3CCN(c4ccccc4OC(C)C)CC3)CC2)cc1Cl` [Cpd 18, 3-Chloro-N-cis-{4-[4-(2-isopropoxy-phenyl)-piperazin-1-yl]-cyclohexyl}-4-methyl-benzenesulfonamide]: 0.167 µM, 0.0105 µM and 0.0111 µM.
For `CC(C)Oc1ccccc1N1CCN([C@H]2CC[C@@H](NS(=O)(=O)c3ccc(F)cc3)CC2)CC1` [Cpd 10, 4-Fluoro-N-cis-{4-[4-(2-isopropoxy-phenyl)-piperazin-1-yl]-cyclohexyl}-benzenesulfonamide] the same measures were 0.15 µM, 0.0056 µM and 0.0048 µM.
With `CC(C)Oc1ccccc1N1CCN([C@H]2CC[C@@H](NS(=O)(=O)c3ccccc3S(C)(=O)=O)CC2)CC1` [Cpd 5, N-cis-{4-[4-(2-Isopropoxy-phenyl)-piperazin-1-yl]-cyclohexyl}-2-methanesulfonyl-benzenesulfonamide], the values for the Ki at α1b-AR, at α1a-AR and on α1d-AR were 0.118 µM, 0.0125 µM and 0.0028 µM, respectively.
The matching figures for `CC(C)Oc1cc(F)ccc1N1CCN([C@H]2CC[C@@H](NS(=O)(=O)c3cc(Cl)ccc3F)CC2)CC1` [Cpd 74, 5-Chloro-2-fluoro-N-cis-{4-[4-(4-fluoro-2-isopropoxy-phenyl)-piperazin-1-yl]-cyclohexyl}-benzenesulfonamide]: 0.101 µM, 0.0056 µM and 0.0022 µM.
For `CC(C)Oc1ccccc1N1CCN([C@H]2CC[C@@H](NS(=O)(=O)c3ccc(C(F)(F)F)cc3)CC2)CC1` [Cpd 9, N-cis-{4-[4-(2-Isopropoxy-phenyl)-piperazin-1-yl]-cyclohexyl}-4-trifluoromethyl-benzenesulfonamide] the same measures were 0.124 µM, 0.025 µM and 0.018 µM.
For `COc1ccc(S(=O)(=O)N[C@H]2CC[C@H](N3CCN(c4cc(F)ccc4OCC(F)(F)F)CC3)CC2)cc1OC` [Cpd 84, N-trans-(4-{4-[5-Fluoro-2-(2,2,2-trifluoro-ethoxy)-phenyl]-piperazin-1-yl}-cyclohexyl)-3,4-dimethoxy-benzenesulfonamide], the figures for the Ki at α1b-AR, at α1a-AR and on α1d-AR were 0.22 µM, 0.033 µM and 0.0361 µM, respectively.

The term Ki denotes the equilibrium dissociation constant of an inhibitor or competing ligand from its target.
